The test system of assay [1] is M21. Briefly: Cell cycle arrest in human M21 cells assessed as accumulation at S phase at 1.5 uM after 24 hrs by DAPI staining-based flow cytometry (reference value: 17.4%). Format: functional. A general note: Flow cytometry measures light scatter and fluorescence of single cells or particles in a stream.
Assay [2] in a line: Antiproliferative activity against human HT1080 cells assessed as growth inhibition incubated for 48 hrs by sulforhodamine B assay. It is filed as functional, cell-based, HT-1080. As to conditions: Homo sapiens, HT-1080, 48 h; read-out: IC50. (In general: The SRB assay estimates cell density from bound dye.)
Assay [3] relates to M21. Put plainly: Cell cycle arrest in human M21 cells assessed as accumulation at subG1 phase at 1.5 uM after 24 hrs by DAPI staining-based flow cytometry (reference value: 1.5%). It is filed as functional.
The test system of assay [4] is M21. Briefly: Cell cycle arrest in human M21 cells assessed as accumulation at G0/G1 phase at 1.5 uM after 24 hrs by DAPI staining-based flow cytometry (reference value: 65.1%). Format: functional.
Assay [5] concerns M21. Briefly: Antiproliferative activity against human M21 cells assessed as growth inhibition incubated for 48 hrs by sulforhodamine B assay. Format: functional, cell-based. As to conditions: M21, 48 h.
Assay [6] concerns MCF7. Put plainly: Antiproliferative activity against human MCF7 cells assessed as growth inhibition incubated for 48 hrs by sulforhodamine B assay. It is filed as functional, cell-based. As to conditions: MCF7, 48 h.
The test system of assay [7] is M21. Briefly: Induction DNA DSBs in human M21 cells assessed as increase in gamma H2AX foci at 0.75 uM incubated for 24 hrs by DAPI staining based immunocytochemistry. It is filed as cell-based.
Assay [8] has as its system HT-29. Put plainly: Antiproliferative activity against human HT-29 cells assessed as growth inhibition incubated for 48 hrs by sulforhodamine B assay. Format: functional, cell-based. As to conditions: HT-29, 48 h.
Assay [9] deals with M21. Briefly: Cell cycle arrest in human M21 cells assessed as accumulation at G2/M phase at 1.5 uM after 24 hrs by DAPI staining-based flow cytometry (reference value: 16%). It is filed as functional.
Assay [10] has as its system M21. Briefly: Cell cycle arrest in human M21 cells assessed as accumulation at subG1 phase at 22 uM after 24 hrs by DAPI staining-based flow cytometry (reference value: 1.5%). Format: functional.
Assay [11] has as its system M21. Briefly: Cell cycle arrest in human M21 cells assessed as accumulation at S phase at 22 uM after 24 hrs by DAPI staining-based flow cytometry (reference value: 17.4%). Format: functional.
Assay [12] has as its system M21. Briefly: Cell cycle arrest in human M21 cells assessed as accumulation at G0/G1 phase at 22 uM after 24 hrs by DAPI staining-based flow cytometry (reference value: 65.1%). Format: functional.
The subject of assay [13] is M21. Put plainly: Cell cycle arrest in human M21 cells assessed as accumulation at G2/M phase at 22 uM after 24 hrs by DAPI staining-based flow cytometry (reference value: 16%). It is filed as functional.
The test system of assay [14] is M21. Put plainly: Cell cycle arrest in human M21 cells assessed as accumulation at subG1 phase at 25 uM after 24 hrs by DAPI staining-based flow cytometry (reference value: 1.5%). Format: functional.
In assay [15] the test system is M21. Briefly: Cell cycle arrest in human M21 cells assessed as accumulation at G2/M phase at 25 uM after 24 hrs by DAPI staining-based flow cytometry (reference value: 16%). Format: functional.
Assay [16] relates to M21. Briefly: Cell cycle arrest in human M21 cells assessed as accumulation at G0/G1 phase at 25 uM after 24 hrs by DAPI staining-based flow cytometry (reference value: 65.1%). Format: functional.
In assay [17] the test system is M21. Put plainly: Cell cycle arrest in human M21 cells assessed as accumulation at S phase at 25 uM after 24 hrs by DAPI staining-based flow cytometry (reference value: 17.4%). Format: functional.
Assay [18] relates to M21. Put plainly: Cell cycle arrest in human M21 cells assessed as accumulation at G0/G1 phase at 11 uM after 24 hrs by DAPI staining-based flow cytometry (reference value: 65.1%). Format: functional.
Assay [19] concerns M21. Briefly: Cell cycle arrest in human M21 cells assessed as accumulation at G2/M phase at 11 uM after 24 hrs by DAPI staining-based flow cytometry (reference value: 16%). Format: functional.
Assay [20] relates to M21. Put plainly: Cell cycle arrest in human M21 cells assessed as accumulation at subG1 phase at 11 uM after 24 hrs by DAPI staining-based flow cytometry (reference value: 1.5%). It is filed as functional.
Assay [21] deals with M21. Briefly: Cell cycle arrest in human M21 cells assessed as accumulation at S phase at 11 uM after 24 hrs by DAPI staining-based flow cytometry (reference value: 17.4%). Format: functional.
For assay [22], the system named is M21. Briefly: Cell cycle arrest in human M21 cells assessed as accumulation at G2/M phase at 5.1 uM after 24 hrs by DAPI staining-based flow cytometry (reference value: 16%). Format: functional.
For assay [23], the system named is M21. Briefly: Cell cycle arrest in human M21 cells assessed as accumulation at subG1 phase at 5.1 uM after 24 hrs by DAPI staining-based flow cytometry (reference value: 1.5%). It is filed as functional.
In assay [24] the test system is M21. Put plainly: Cell cycle arrest in human M21 cells assessed as accumulation at S phase at 5.1 uM after 24 hrs by DAPI staining-based flow cytometry (reference value: 17.4%). It is filed as functional.
Assay [25] deals with M21. Briefly: Cell cycle arrest in human M21 cells assessed as accumulation at G0/G1 phase at 5.1 uM after 24 hrs by DAPI staining-based flow cytometry (reference value: 65.1%). Format: functional.

SMILES strings stand for the structures. Calls of active or inactive are those of the source. The rule behind the calls is not given here.

As usually defined, the IC50 is the concentration that inhibits the measured activity by half.

Take `CC[C@@]1(O)C(=O)OCc2c1cc1n(c2=O)Cc2cc3c(CN(C)C)c(O)ccc3nc2-1` [TOPOTECAN]: the Activity in [1] is listed as 31.8%; in assay [3], 1.4%; in assay [4], 6.4%; in assay [9] it was 60.4%. Further, the IC50 in assay [2] turned out to be 180 nM; in [5] it was 1400 nM; in [6], 0.024 µM; in [8], 0.23 µM. Also, the outcome in [7] was Active.
As for `CCCc1cccc(OS(=O)(=O)c2ccc(NC(=O)NCCCl)cc2)c1`, the Activity in assay [10] is 6%; in assay [11], 5.8%; in assay [12] it was 9.9%; in assay [13], 78.3%. Besides, the IC50 was determined as 2600 nM in assay [2], 3300 nM in assay [5], 3.9 µM in assay [6] and 3.4 µM in assay [8].
Regarding `COc1cccc(OS(=O)(=O)c2ccc(NC(=O)NCCCl)cc2)c1`, the half-maximal inhibitory concentration (IC50) in assay [2] came out at 3100 nM; in [5] it was 3600 nM; in [6] it was 4.2 µM; in assay [8], 3.8 µM. Moreover, the Activity in assay [14] is 3.5%; in assay [15], 87.7%; in [16], 2.5%; in assay [17] it was 6.3%.
Regarding `CCOc1cccc(OS(=O)(=O)c2ccc(NC(=O)NCCCl)cc2)c1`, the IC50 in [2] was found to be 3300 nM; in assay [5], 2400 nM; in assay [6], 3.3 µM; in assay [8], 3.2 µM. Also, the Activity in [18] was 22.2%; in assay [19] it was 55.9%; in assay [20] it was 8.4%; in [21] it was 13.5%.
`O=C(NCCCl)Nc1ccc(S(=O)(=O)Oc2cc(Cl)c(Cl)cc2Cl)cc1`: the Activity in [22] stood at 82.6%; in assay [23] it was 5.5%; in assay [24] it was 8.6%; in assay [25], 3.3%. Further, the half-maximal inhibitory concentration (IC50) worked out at 1400 nM in assay [2], 1000 nM in assay [5], 1.2 µM in assay [6] and 1.2 µM in assay [8].

For the origin of these results see ChEMBL document CHEMBL3632622, “Synthesis and biological evaluation of novel N-phenyl ureidobenzenesulfonate derivatives as potential anticancer agents. Part 2. Modulation of the ring B” (Eur J Med Chem, 2015).
